Results on 24 compounds are retold here after PubChem BioAssay (NCI).

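Assay format: 96-well plates, 48-hour exposure. Here, GI50 denotes the concentration required for 50% inhibition of growth. TGI denotes the concentration required for complete inhibition of growth.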 Some results are limits rather than exact numbers.

The subject of the first assay is K-562 leukemia. Nature of the assay: NCI anticancer screen, dose series, 48 h.
On to `OC(CN1CC1)C(O)CN1CC1` (centres undefined), for which the GI50 is more than 50 mg/L and the TGI is more than 50 mg/L.
Consider `CNC(SC)=C1C(=O)OC(C)(C)OC1=O`, for which the TGI is more than 100 µM.
In the case of `c1ccc2nc3c(cc4ccccn43)nc2c1`, the GI50 was more than 100 µM and the TGI is more than 100 µM.
`NC(=O)/C=C/C(=O)O`: the TGI is more than 5000 µM.
On to `CC(=O)OCC1OC(n2cc([N+](=O)[O-])c(=O)[nH]c2=O)C(OC(C)=O)C(OC(C)=O)C1OC(C)=O` (centres undefined), for which the TGI is more than 100 µM.
In the case of `O=C1C=C(O)c2[nH]c(=O)ccc2C1=O`, the TGI was more than 100 µM.
`O=c1c(Cl)c(Cl)cnn1CCc1ccncc1` registered a TGI of more than 100 µM.
Compound `CCCCCCCCCCCCCC(=O)OCC1OC(=O)CC1O` (centres undefined) displayed a TGI of 61.5 µM.
As to `CCSc1nc(N)c2cn[nH]c2n1`, the GI50 was 37.3 µM and the TGI was more than 100 µM.
Regarding `O=c1c2c3c(sc2n2c(-c4cc(-c5ccccc5)nn4-c4ccccc4)nnc2n1Cc1ccccc1)CCCC3`, the GI50 is more than 100 µM and the TGI was more than 100 µM.
Regarding `COc1ccc(CC(C)C(C)Cc2ccc(OC)c(OC)c2)cc1OC` (centres undefined), the GI50 was more than 1400 µM and the TGI is more than 1400 µM.
For the compound `O=C1C2=C(c3ccccc31)C(c1ccccc1Cl)N1C(=O)CCSC1=N2` (centres undefined), the TGI was more than 100 µM.
`Cc1ccc2nc3c(Cl)c(C)c(=O)cc-3sc2c1` had a TGI of more than 100 µM.
As to `O=C/C(=C(/Cl)c1ccc(O)cc1)c1ccccc1`, the TGI is more than 100 µM.
For `Cn1c2ccccc2c2c(=O)c3ccccc3[nH]c21`, the GI50 was more than 100 µM and the TGI is more than 100 µM.

The subject of the next assay is SNB-19 CNS. In words: NCI anticancer screen, dose series, 48 h.
Take `Cc1cc(Nc2nc(SCc3ccc(C(=O)Nc4ccc(F)cc4N)cc3)nn3cccc23)n[nH]1`: the GI50 is 0.536 µM and the TGI was more than 100 µM.
For the compound `COc1ccccc1/C=C/C(=O)/C=C/c1ccccc1O`, the GI50 is 1.48 µM and the TGI was found to be 2.94 µM.
Compound `CCOC(=O)C(=O)Nc1ccccc1C(F)(F)F` gave a TGI of more than 100 µM.
Consider `CCOC(=O)/C(=C/c1cccc(OC)c1)N(CC)CC`, for which the TGI was more than 100 µM.
For the compound `OC(CN1CC1)C(O)CN1CC1` (centres undefined), the GI50 is more than 50 mg/L and the TGI was more than 50 mg/L.
Regarding `CNC(SC)=C1C(=O)OC(C)(C)OC1=O`, the TGI is more than 100 µM.
As for `c1ccc2nc3c(cc4ccccn43)nc2c1`, the GI50 is more than 100 µM and the TGI is more than 100 µM.
In the case of `Cc1c(C(=O)CSc2nc3ccccc3c(=O)n2-c2ccccc2)c(=O)n(-c2ccccc2)n1C`, the TGI is more than 100 µM.
Turning to `c1ccc(Cn2cnc3ccc(-c4nc(-c5ccc6c(c5)ncn6C5CCCCC5)cn5ccnc45)cc32)cc1`, the GI50 was 4.54 µM and the TGI is more than 100 µM.
Compound `CC(=O)OCC1OC(n2cc([N+](=O)[O-])c(=O)[nH]c2=O)C(OC(C)=O)C(OC(C)=O)C1OC(C)=O` (centres undefined) displayed a TGI of more than 100 µM.
In turn, `O=C1C=C(O)c2[nH]c(=O)ccc2C1=O` had a TGI of more than 100 µM.
In turn, `O=c1c(Cl)c(Cl)cnn1CCc1ccncc1` came in with a TGI of 30.7 µM.
Same read-out and setting: the figure for `CCCCCCCCCCCCCC(=O)OCC1OC(=O)CC1O` (centres undefined) is more than 100 µM.
Take `CCSc1nc(N)c2cn[nH]c2n1`: the GI50 was 39.2 µM and the TGI was more than 100 µM.
Compound `CC1(Cc2ccccc2)NC(=S)NC1=O` (centres undefined) had a TGI of more than 100 µM.
`O=c1c2c3c(sc2n2c(-c4cc(-c5ccccc5)nn4-c4ccccc4)nnc2n1Cc1ccccc1)CCCC3`: the GI50 was more than 100 µM and the TGI was more than 100 µM.
Regarding `COc1ccc(CC(C)C(C)Cc2ccc(OC)c(OC)c2)cc1OC` (centres undefined), the GI50 was more than 1400 µM and the TGI was more than 1400 µM.
Turning to `Cc1ccc2c(c1)Sc1ccc(N=NN(C)C)cc1N2C`, the TGI is more than 100 µM.
In turn, `O=C1C2=C(c3ccccc31)C(c1ccccc1Cl)N1C(=O)CCSC1=N2` (centres undefined) yielded a TGI of more than 100 µM.
As for `Cc1ccc2nc3c(Cl)c(C)c(=O)cc-3sc2c1`, the GI50 was more than 100 µM and the TGI was more than 100 µM.
Compound `O=C/C(=C(/Cl)c1ccc(O)cc1)c1ccccc1` returned a TGI of more than 100 µM.
Consider `C=CCO/N=C/c1cc(NC(=S)c2ccoc2C)ccc1Cl`, for which the TGI turned out to be 21.2 µM.
Consider `Cn1c2ccccc2c2c(=O)c3ccccc3[nH]c21`, for which the GI50 is 43.9 µM and the TGI is more than 100 µM.

The test system of another assay is SR leukemia. Nature of the assay: NCI anticancer screen, dose series, 48 h.
In the case of `Cc1cc(Nc2nc(SCc3ccc(C(=O)Nc4ccc(F)cc4N)cc3)nn3cccc23)n[nH]1`, the GI50 was 0.068 µM and the TGI turned out to be 63.1 µM.
For `COc1ccccc1/C=C/C(=O)/C=C/c1ccccc1O`, the GI50 was 0.39 µM and the TGI was more than 100 µM.
Compound `CCOC(=O)C(=O)Nc1ccccc1C(F)(F)F` displayed a TGI of more than 100 µM.
Same read-out and setting: next, `CCOC(=O)/C(=C/c1cccc(OC)c1)N(CC)CC`: more than 100 µM.
In the case of `OC(CN1CC1)C(O)CN1CC1` (centres undefined), the GI50 is more than 50 mg/L and the TGI is more than 50 mg/L.
On to `CNC(SC)=C1C(=O)OC(C)(C)OC1=O`, for which the TGI was more than 100 µM.
For the compound `c1ccc2nc3c(cc4ccccn43)nc2c1`, the GI50 was 52.5 µM and the TGI is more than 100 µM.
On to `NC(=O)/C=C/C(=O)O`, for which the TGI is more than 5000 µM.
Still for that read-out and setting: next, `Cc1c(C(=O)CSc2nc3ccccc3c(=O)n2-c2ccccc2)c(=O)n(-c2ccccc2)n1C`: more than 100 µM.
As for `c1ccc(Cn2cnc3ccc(-c4nc(-c5ccc6c(c5)ncn6C5CCCCC5)cn5ccnc45)cc32)cc1`, the GI50 was 1.68 µM and the TGI was more than 100 µM.
Compound `CC(=O)OCC1OC(n2cc([N+](=O)[O-])c(=O)[nH]c2=O)C(OC(C)=O)C(OC(C)=O)C1OC(C)=O` (centres undefined) registered a TGI of more than 100 µM.
Compound `O=C1C=C(O)c2[nH]c(=O)ccc2C1=O` had a TGI of more than 100 µM.
`O=c1c(Cl)c(Cl)cnn1CCc1ccncc1` yielded a TGI of 57.2 µM.
For the compound `CCSc1nc(N)c2cn[nH]c2n1`, the GI50 is 7.63 µM and the TGI came out at 39.6 µM.
The compound `CC1(Cc2ccccc2)NC(=S)NC1=O` (centres undefined) came in with a TGI of more than 100 µM.
In the case of `COc1ccc(CC(C)C(C)Cc2ccc(OC)c(OC)c2)cc1OC` (centres undefined), the GI50 was 915 µM and the TGI was more than 1400 µM.
`Cc1ccc2c(c1)Sc1ccc(N=NN(C)C)cc1N2C`: the TGI is more than 100 µM.
For `O=C/C(=C(/Cl)c1ccc(O)cc1)c1ccccc1`, the TGI was more than 100 µM.
`C=CCO/N=C/c1cc(NC(=S)c2ccoc2C)ccc1Cl` displayed a TGI of 30.9 µM.
As for `Cn1c2ccccc2c2c(=O)c3ccccc3[nH]c21`, the GI50 is more than 100 µM and the TGI is more than 100 µM.

Another assay concerns OVCAR-4 ovarian. Nature of the assay: NCI anticancer screen, dose series, 48 h.
For the compound `Cc1cc(Nc2nc(SCc3ccc(C(=O)Nc4ccc(F)cc4N)cc3)nn3cccc23)n[nH]1`, the GI50 is 1.66 µM and the TGI is 77.7 µM.
Regarding `COc1ccccc1/C=C/C(=O)/C=C/c1ccccc1O`, the GI50 was 1.17 µM and the TGI turned out to be 8.83 µM.
`CCOC(=O)C(=O)Nc1ccccc1C(F)(F)F`: the TGI was more than 100 µM.
The compound `CCOC(=O)/C(=C/c1cccc(OC)c1)N(CC)CC` yielded a TGI of more than 100 µM.
Turning to `OC(CN1CC1)C(O)CN1CC1` (centres undefined), the GI50 was more than 50 mg/L and the TGI was more than 50 mg/L.
Take `NC(=O)/C=C/C(=O)O`: the TGI is more than 5000 µM.
Compound `Cc1c(C(=O)CSc2nc3ccccc3c(=O)n2-c2ccccc2)c(=O)n(-c2ccccc2)n1C` returned a TGI of more than 100 µM.
In the case of `c1ccc(Cn2cnc3ccc(-c4nc(-c5ccc6c(c5)ncn6C5CCCCC5)cn5ccnc45)cc32)cc1`, the GI50 was 3.06 µM and the TGI was more than 100 µM.
For `CC(=O)OCC1OC(n2cc([N+](=O)[O-])c(=O)[nH]c2=O)C(OC(C)=O)C(OC(C)=O)C1OC(C)=O` (centres undefined), the TGI is more than 100 µM.
For the compound `O=C1C=C(O)c2[nH]c(=O)ccc2C1=O`, the TGI amounted to 82.5 µM.
The compound `O=c1c(Cl)c(Cl)cnn1CCc1ccncc1` registered a TGI of 33 µM.
For the compound `CCCCCCCCCCCCCC(=O)OCC1OC(=O)CC1O` (centres undefined), the TGI was more than 100 µM.
For `CCSc1nc(N)c2cn[nH]c2n1`, the GI50 was 32.7 µM and the TGI is 89 µM.
For `O=c1c2c3c(sc2n2c(-c4cc(-c5ccccc5)nn4-c4ccccc4)nnc2n1Cc1ccccc1)CCCC3` the same measures were more than 100 µM and more than 100 µM.
As for `COc1ccc(CC(C)C(C)Cc2ccc(OC)c(OC)c2)cc1OC` (centres undefined), the GI50 is 1140 µM and the TGI was more than 1400 µM.
Compound `Cc1ccc2c(c1)Sc1ccc(N=NN(C)C)cc1N2C` registered a TGI of more than 100 µM.
`O=C1C2=C(c3ccccc31)C(c1ccccc1Cl)N1C(=O)CCSC1=N2` (centres undefined) returned a TGI of more than 100 µM.
Consider `Cc1ccc2nc3c(Cl)c(C)c(=O)cc-3sc2c1`, for which the GI50 is 61.7 µM and the TGI was more than 100 µM.
`O=C/C(=C(/Cl)c1ccc(O)cc1)c1ccccc1` showed a TGI of more than 54 µM.
For `C=CCO/N=C/c1cc(NC(=S)c2ccoc2C)ccc1Cl`, the TGI was 20.6 µM.

Another assay has as its system ACHN renal. In words: NCI anticancer screen, dose series, 48 h.
For the compound `Cc1cc(Nc2nc(SCc3ccc(C(=O)Nc4ccc(F)cc4N)cc3)nn3cccc23)n[nH]1`, the GI50 is 1.24 µM and the TGI is 13 µM.
Take `COc1ccccc1/C=C/C(=O)/C=C/c1ccccc1O`: the GI50 was 1.36 µM and the TGI was found to be 2.66 µM.
`CCOC(=O)C(=O)Nc1ccccc1C(F)(F)F` showed a TGI of more than 100 µM.
As to `CCOC(=O)/C(=C/c1cccc(OC)c1)N(CC)CC`, the TGI is more than 100 µM.
On to `OC(CN1CC1)C(O)CN1CC1` (centres undefined), for which the GI50 is more than 50 mg/L and the TGI was more than 50 mg/L.
Regarding `CNC(SC)=C1C(=O)OC(C)(C)OC1=O`, the TGI is more than 100 µM.
`c1ccc2nc3c(cc4ccccn43)nc2c1`: the GI50 was 60.2 µM and the TGI was more than 100 µM.
With `NC(=O)/C=C/C(=O)O`, the TGI is more than 5000 µM.
Same read-out and setting: next, `Cc1c(C(=O)CSc2nc3ccccc3c(=O)n2-c2ccccc2)c(=O)n(-c2ccccc2)n1C`: more than 100 µM.
For the compound `c1ccc(Cn2cnc3ccc(-c4nc(-c5ccc6c(c5)ncn6C5CCCCC5)cn5ccnc45)cc32)cc1`, the GI50 is 3.08 µM and the TGI is more than 100 µM.
`CC(=O)OCC1OC(n2cc([N+](=O)[O-])c(=O)[nH]c2=O)C(OC(C)=O)C(OC(C)=O)C1OC(C)=O` (centres undefined) displayed a TGI of more than 100 µM.
For `O=C1C=C(O)c2[nH]c(=O)ccc2C1=O`, the TGI is more than 100 µM.
On the same count and under the same terms, next, `O=c1c(Cl)c(Cl)cnn1CCc1ccncc1`: 33.4 µM; `CCCCCCCCCCCCCC(=O)OCC1OC(=O)CC1O` (centres undefined): more than 100 µM.
As for `CCSc1nc(N)c2cn[nH]c2n1`, the GI50 is 31.3 µM and the TGI is more than 100 µM.
Consider `CC1(Cc2ccccc2)NC(=S)NC1=O` (centres undefined), for which the TGI was more than 100 µM.
For `O=c1c2c3c(sc2n2c(-c4cc(-c5ccccc5)nn4-c4ccccc4)nnc2n1Cc1ccccc1)CCCC3`, the GI50 was more than 100 µM and the TGI is more than 100 µM.
As for `COc1ccc(CC(C)C(C)Cc2ccc(OC)c(OC)c2)cc1OC` (centres undefined), the GI50 was more than 1400 µM and the TGI is more than 1400 µM.
`Cc1ccc2c(c1)Sc1ccc(N=NN(C)C)cc1N2C`: the TGI is more than 100 µM.
In turn, `O=C1C2=C(c3ccccc31)C(c1ccccc1Cl)N1C(=O)CCSC1=N2` (centres undefined) returned a TGI of more than 100 µM.
With `Cc1ccc2nc3c(Cl)c(C)c(=O)cc-3sc2c1`, the GI50 is 39.7 µM and the TGI was more than 100 µM.
With `O=C/C(=C(/Cl)c1ccc(O)cc1)c1ccccc1`, the TGI turned out to be 50.2 µM.
Still for that read-out and setting: next, `C=CCO/N=C/c1cc(NC(=S)c2ccoc2C)ccc1Cl`: 19.4 µM.
Take `Cn1c2ccccc2c2c(=O)c3ccccc3[nH]c21`: the GI50 is 31.1 µM and the TGI is more than 100 µM.
